Data set [1] deals with Leishmania major promastigotes (strain MHOM/SN/74/SD). In kind it is cell-based. The following applies: for d Effect Size (Cohen's d), combined: original and replication combined; for % Viability (mean), replication: % of untreated control, calculated from the dose response curve; for % Viability (mean), combined original and replication: meta-analysis combining original and replication studies. The method, then: The promastigote viability assays were conducted by the Anti-Infectives Screening Core Facility at New York University School of Medicine (https://www.scienceexchange.com/facilities/anti-infectives-screening-and-insectary-core-facilities-nyu). All assays were performed by investigators blinded to the reagents under study. 500 µM stocks of peptides were made by resuspending 4 mg of each peptide (M.W. 3131.92) in 2.554 mL of distilled sterile water. Each peptide was tested in triplicate three independent times at 50 µM, 25 µM, 12.5 µM, 6.25 µM, 3.125 µM, 1.5625 µM, 0.78125 µM, and 0.390625 µM. L. major strain MHOM/SN/74/SD (ATCC, PRA-384) was used in these studies. These cells were routinely cultured at 26°C in M-199 medium (Gibco, Grand Island, NY), supplemented with 10% heat inactivated fetal calf serum (Hyclone, Logan) and Pen/Strep (Gibco, Grand Island, NY). Mid-log phase promastigotes at concentrations of 5×10^6 per well were seeded in 96-well tissue culture plates. Heat-killed parasites, prepared by incubation at 99°C for 30 minutes, served as positive controls for the viability assays. Peptides were incubated with the cells for 4 hours at 26°C. A 20 µL volume of PrestoBlue (Life Technologies, Carlsbad, CA) was added to each well and incubated at 37°C for 3 hours. Fluorescence at excitation 530 nm and 590 nm emission wavelengths was measured using a plate reader (VICTOR, Perkin Elmer, US). Background fluorescence from media alone controls was subtracted from each reading and promastigote viability was expressed as a percentage of the untreated control.
An independent-samples t-test was conducted to compare promastigote viability in peptide treated and untreated conditions. A Fisher combined probability test was used to combine the original and replication studies values into a single combined study value for each peptide and peptide concentration. To provide a standardized measure of the effect we used cohen's d.

Data set [2] relates to Leishmania major promastigotes. The following applies: 4 h, % of untreated control, determined from bar graph Fig. 1A, ref Lynn et al. [5], cited from earlier work. How it is done:
Table 1 Promastigote viability assay of Leishmania major when treated with 0.5 µM or 2 µM BMAP-28 variants. | column: % Viability (mean) || This study describes an attempt to replicate experiments from the paper “Effect of BMAP-28 Antimicrobial Peptides on Leishmania major Promastigote and Amastigote Growth: Role of Leishmanolysin in Parasite Survival,” which was submitted to the Reproducibility Initiative for independent validation. The cathelicidin bovine myeloid antimicrobial peptide 28 (BMAP-28) and its isomers were previously shown to have potent antiparasitic activity against Leishmania major.

Data set [3] has as its system Leishmania major promastigotes. The data set is described as follows: Promastigote viability assay of the original study (Fig. 1A of Lynn et al.). In kind it is cell-based. The following applies: from data of ref Lynn et al. [5].
Data set [4] relates to mammalian epithelial cells and monocytes. The following applies: cited from earlier work.
Setting [5] is: 0.5 µM peptide, 4 h, three biological replicates.
[6] abbreviates: 2 µM peptide, 4 h, three biological replicates.

Values joined by “and” are separate entries in the source; they are usually repeats but may differ in a detail not shown here. Equal values may be shown once. Read-outs that look alike come from different tables or passages of the source. Square brackets hold non-standard residues; d marks the D form. Ends that are not written are not given here. Peptide text beside a SMILES is read from it.

For the compound “GGLRSLGRKILRAWKKYGPIIVPIIRIG [L-BMAP-28]”, in data set [1] (4 h), inhibition was half-maximal at 17.1 µM (IC50) and the IC90 amounted to 25.2 µM.

On to “GGLRSLGRKILRAWKKYGPIIVPIIRI-NH2 [L-BMAP-28-NH2, amidated L-BMAP-28 peptide]”, for which the “d Effect Size (Cohen's d), replication” value is 0.62 in data set [1] (0.5 µM peptide vs untreated) and 0.81 in data set [1] (2 µM peptide vs untreated). For the same compound, the figures for the “d Effect Size (Cohen's d), combined” value in data set [1] (0.5 µM peptide vs untreated) and in data set [1] (2 µM peptide vs untreated) were 0.11 and 2.65, respectively. For the same compound, the entries for the “% Viability (mean), replication” value in data set [1] (setting [5]) and in data set [1] (setting [6]) were 95.55% and 94.15%, respectively. Also, the “% Viability (mean), combined original and replication” value in data set [1] (0.5 µM peptide) came to 99.40%; in data set [1] (2 µM peptide), 75.45%. For the same compound, the concentration for half-maximal inhibition (IC50) in data set [1] (4 h at 26°C, PrestoBlue fluorescence, dose-response 0.39-50 µM, three biological replicates in triplicate, read-out: IC50, promastigote viability) is 5.83 µM. In addition, the IC90 in data set [1] (4 h at 26°C, PrestoBlue fluorescence, dose-response 0.39-50 µM, three biological replicates, read-out: IC90, promastigote viability) stood at 10.2 µM.

For the compound `CC[C@@H](C)[C@@H](NC(=O)[C@H]1CCCN1C(=O)CNC(=O)[C@@H](Cc1ccc(O)cc1)NC(=O)[C@@H](CCCCN)NC(=O)[C@@H](CCCCN)NC(=O)[C@@H](Cc1c[nH]c2ccccc12)NC(=O)[C@@H](C)NC(=O)[C@@H](CCCNC(=N)N)NC(=O)[C@@H](CC(C)C)NC(=O)[C@H](NC(=O)[C@@H](CCCCN)NC(=O)[C@@H](CCCNC(=N)N)NC(=O)CNC(=O)[C@@H](CC(C)C)NC(=O)[C@@H](CO)NC(=O)[C@@H](CCCNC(=N)N)NC(=O)[C@@H](CC(C)C)NC(=O)CNC(=O)CN)[C@H](C)CC)C(=O)N[C@@H](C(=O)N[C@@H](C(=O)N1CCC[C@@H]1C(=O)N[C@@H](C(=O)N[C@@H](C(=O)N[C@H](CCCNC(=N)N)C(=O)N[C@@H](C(=O)NCC(=O)O)[C@H](C)CC)[C@H](C)CC)[C@H](C)CC)C(C)C)[C@H](C)CC` [D-BMAP-28] (H-GG[dL][dR][dS][dL]G[dR][dK][dI][dL][dR][dA][dW][dK][dK][dY]G[dP][dI][dI][dV][dP][dI][dI][dR][dI]G-OH; N-terminus assumed), the “% Viability (mean), replication” value in data set [1] (setting [5]) is listed as 92.40%; in data set [1] (setting [6]), 73.26%. In addition, the “% Viability (mean), combined original and replication” value in data set [1] (0.5 µM peptide) is given as “not significantly modified”. In data set [1] (2 µM peptide vs untreated), the “d Effect Size (Cohen's d), combined” value is 16.67. In addition, the IC50 in data set [1] (4 h) came to 3.55 µM. Further, the IC90 in data set [1] (4 h) was 9.85 µM. The “% Viability (mean), original study” value was 68.75% in data set [2] (0.5 µM peptide); 6% and 5.50% in data set [2] (2 µM peptide). Moreover, the “d Effect Size (Cohen's d), original study” value in data set [3] (0.5 µM peptide vs untreated) stood at 2.55; in data set [3] (2 µM peptide vs untreated), 37.8.

Consider `CC[C@@H](C)[C@@H](NC(=O)CN)C(=O)N[C@H](CCCNC(=N)N)C(=O)N[C@@H](C(=O)N[C@@H](C(=O)N1CCC[C@@H]1C(=O)N[C@@H](C(=O)N[C@@H](C(=O)N[C@@H](C(=O)N1CCC[C@@H]1C(=O)NCC(=O)N[C@H](Cc1ccc(O)cc1)C(=O)N[C@H](CCCCN)C(=O)N[C@H](CCCCN)C(=O)N[C@H](Cc1c[nH]c2ccccc12)C(=O)N[C@H](C)C(=O)N[C@H](CCCNC(=N)N)C(=O)N[C@H](CC(C)C)C(=O)N[C@@H](C(=O)N[C@H](CCCCN)C(=O)N[C@H](CCCNC(=N)N)C(=O)NCC(=O)N[C@H](CC(C)C)C(=O)N[C@H](CO)C(=O)N[C@H](CCCNC(=N)N)C(=O)N[C@H](CC(C)C)C(=O)NCC(=O)NCC(=O)O)[C@H](C)CC)[C@H](C)CC)[C@H](C)CC)C(C)C)[C@H](C)CC)[C@H](C)CC` [RI-BMAP-28] (H-G[dI][dR][dI][dI][dP][dV][dI][dI][dP]G[dY][dK][dK][dW][dA][dR][dL][dI][dK][dR]G[dL][dS][dR][dL]GG-OH; N-terminus assumed), for which the “% Viability (mean), replication” value in data set [1] (setting [5]) is reported as 94.64%; in data set [1] (setting [6]), 76.64%. For the same compound, in data set [1] (0.5 µM peptide), the “% Viability (mean), combined original and replication” value was “not significantly modified”. In data set [1] (2 µM peptide vs untreated), the “d Effect Size (Cohen's d), combined” value came to 6.31. In addition, the IC50 in data set [1] (4 h) came to 4.55 µM. The compound also had an IC90 in data set [1] (4 h) of 20 µM. Besides, the “% Viability (mean), original study” value in data set [2] (0.5 µM peptide) is 103.00%; in data set [2] (2 µM peptide), 18% and 17.50%. Besides, the “d Effect Size (Cohen's d), original study” value is listed as −1.20 in data set [3] (0.5 µM peptide vs untreated) and 6.88 in data set [3] (2 µM peptide vs untreated). Moreover, the “toxicity to mammalian epithelial cells and monocytes (in words)” value in data set [4] is given as “limited toxicity”.

Source of the values: PMC4269415, “Replication Attempt: “Effect of BMAP-28 Antimicrobial Peptides on Leishmania Major Promastigote and Amastigote Growth: Role of Leishmanolysin in Parasite Survival”” (PLoS ONE, 2014).
